The values that follow come from publication PMC6382696, “Drug Repurposing: The Anthelmintics Niclosamide and Nitazoxanide Are Potent TMEM16A Antagonists That Fully Bronchodilate Airways” (Frontiers in Pharmacology, 2019).

The test system of experiment [1] is Wnt/β-catenin transcription. The conditions noted are these: ref Mook et al. (2015); read-out: Mook et al. Wnt/β-catenin TopFlash (IC50); cited from earlier work.
Experiment [2] deals with Wnt/β-catenin transcription. In words: Wnt/β-catenin transcription TOPFlash reporter assay. It is filed as cell-based. As to conditions: Wnt TopFlash IC50 over TMEM16A eYFP IC50. Background: A reporter such as luciferase makes a cellular process visible.
In another experiment the target is T1, hTMEM16A (abc) (Homo sapiens, UniProt Q5XXA6, DEL476-501).
T1 sequence (Q5XXA6 with tags, fused parts or gaps isoform Q5XXA6-5 DEL539-564): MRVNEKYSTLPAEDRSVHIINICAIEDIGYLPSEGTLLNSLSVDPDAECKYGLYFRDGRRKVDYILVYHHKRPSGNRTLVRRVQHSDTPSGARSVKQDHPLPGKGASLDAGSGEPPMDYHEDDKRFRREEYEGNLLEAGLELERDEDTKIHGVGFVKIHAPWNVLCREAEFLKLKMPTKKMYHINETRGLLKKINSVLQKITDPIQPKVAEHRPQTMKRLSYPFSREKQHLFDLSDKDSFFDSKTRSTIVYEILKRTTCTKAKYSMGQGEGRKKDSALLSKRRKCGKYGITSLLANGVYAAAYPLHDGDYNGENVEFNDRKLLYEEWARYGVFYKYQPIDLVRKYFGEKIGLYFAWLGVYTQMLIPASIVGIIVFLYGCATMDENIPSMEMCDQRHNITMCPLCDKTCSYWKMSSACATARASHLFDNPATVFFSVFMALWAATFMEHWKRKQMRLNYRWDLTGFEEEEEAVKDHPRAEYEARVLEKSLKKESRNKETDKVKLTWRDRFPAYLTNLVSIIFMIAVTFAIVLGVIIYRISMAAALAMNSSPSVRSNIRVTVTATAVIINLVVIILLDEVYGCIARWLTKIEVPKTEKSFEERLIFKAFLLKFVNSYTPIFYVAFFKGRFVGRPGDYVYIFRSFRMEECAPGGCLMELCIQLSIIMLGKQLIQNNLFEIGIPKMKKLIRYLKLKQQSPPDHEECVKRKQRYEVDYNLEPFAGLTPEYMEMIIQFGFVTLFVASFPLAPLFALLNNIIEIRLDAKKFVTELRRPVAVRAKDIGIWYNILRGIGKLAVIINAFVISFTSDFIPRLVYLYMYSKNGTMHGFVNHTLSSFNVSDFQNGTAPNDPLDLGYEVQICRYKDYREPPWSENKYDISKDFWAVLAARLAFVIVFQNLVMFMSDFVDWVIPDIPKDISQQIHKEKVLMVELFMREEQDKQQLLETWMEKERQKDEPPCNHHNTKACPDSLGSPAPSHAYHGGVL
In words: medchem TMEM16A halide-sensitive YFP assay, 22-point dose-response. Details: expressed in transfected cells. In kind it is cell-based. As to conditions: iodide as permeant anion. On the procedure: The TMEM16A HEK293T eYFP (H149Q, I153L) stable cell line for medchem support was generated by transfecting 10 μg of linearized hTMEM16A(abc) DNA constructs into HEK293T eYFP (H149Q,I153L) stable cells. The transfected cells were cultured under 200 μg/ml of hygromycin B selection for 20 days and the stable pool was single cell seeded in 96 well plate and duplicated plate were made after single cell clones were formed. YFP function assay were performed on duplicated plate and clones producing higher changes in fluorescence from the YFP assay were chosen for further expansion to form a stable cell line.
Plates were incubated for 24 h at 37°C with 5% CO2. On the assay day, medium was removed and replaced with 20 μl/well of assay buffer (Hank’s Balanced Salt Solution with 10 mM HEPES pH 7.4), 10 μl/well of 40x diluted compounds was added to assay plate and it was incubated at room temperature for 30 min, after which baseline fluorescence was read in the FLIPR instrument for 10 s. Then, 5 μl/well of a 3x trigger solution (24 mM iodide, 3 μM ionomycin in assay buffer) was added and the fluorescence kinetic trace was recorded for 2 min.

In experiment [3] the test system is mouse tracheal rings. Put plainly: Bronchodilation of cytokine-treated mouse tracheal rings. The conditions noted are these: overnight IL-1β, TNFα, IL-13 100 ng/ml, EC75 carbachol. The protocol:
Airway rings were treated overnight in 2 ml DMEM + PSG/HEPES/AA/NaPyr buffer alone or with the same solution supplemented with 100 ng/ml of mTNFα, mIL-13 and mIL-1β. Unlike like the typical Wake-Up protocol and ring qualifying tests, mouse tracheal rings were not exposed to KPSS and rings were not observed to relax with a β-agonist following discovery of CCh dose-responses. After several washes with PSS, EC75 concentrations of CCh were used to pre-contract rings for >30 min alone or in the presence of cytokines.

Experiment [4] has as its system mouse tracheal rings. Put plainly: Wire myograph bronchodilation of carbachol pre-contracted mouse tracheal rings. The protocol:
The trachea from C57 BL/6 mice was dissected and collected in PBS with Mg^2+ and Ca^2+. After further trimming, two 2 mm sections (rings) per trachea were then placed in DMEM media containing PSG/HEPES/AA/NaPyr for 1 h and used immediately or maintained overnight at 37°C in a humidified incubator with 5% CO2. Rings were then mounted into chambers of DMT wire myograph containing L-shaped mounting pins with 2–3 mN of force applied to secure rings on the pins and the rings were allowed to equilibrate for 25–30 min in a physiological saline buffer (PSS, 130 mM NaCl, 4.7 mM KCl, 1.2 mM MgS04, 14.9 mM NaHCO3, 1.2 mM KH2PO4, 0.026 mM EDTA, 1.6 mM CaCl2, 5.5 mM Dextrose). Throughout the experiment, rings were maintained at physiological temperature and gas conditions by heating buffer reservoir and chamber to 37°C and bubbling a 95% O2, 5% CO2 gas mixture into chamber.
After equilibration, a standard tissue “Wake-Up” procedure was applied by altering tension and then treatment with elevated potassium as follows: 3 mN tension was applied for 5–10 min, then another 2–3 mN tension to total of 5.5 mN and then to 7–8 mN for another 5 min; the tissue pre-tension was then set to 5 mN and allowed to equilibrate for 5–10 min followed by the removal of the PSS buffer and addition of KPSS (60 mM KCl, 74.7 mM NaCl in PSS solution), with force changes monitored until they reached a plateau. The tissue was then washed four times with PSS over 5 min and the KPSS treatment and washes repeated; the tissue was then allowed to sit in PSS for 10 min and the tension was set to 5 mN.
The tissue was then washed three times and then three times more with PSS for 5 min until tension returned to baseline.
Only tissue that passed the qualification tests above advanced to studies on test article compounds. […] For standard ascending dose-response studies on TMEM16A antagonists, an EC75 or EC95 concentration of CCh was used to pre-contract tracheal rings.

The test system of the next experiment is mouse airway rings. In words: Duration of bronchodilation after washout and carbachol re-challenge, mouse airway rings. The conditions noted are these: EC75 carbachol, preliminary. On the procedure: Mouse airway rings were exposed to a typical Wake-Up procedure including the use of KPSS and discovery of EC75 CCh dose responses. However, no isoproterenol was used to observe tissue relaxation as part of the qualification procedure. With pre-contraction with EC75 CCh for >30 min, rings were subjected to a compound dose-response, followed by a complete washout of compound, and re-contracted with EC75 CCh. Traces were recorded for several hours thereafter and normalized to theophylline as control of 100% relaxation.

In experiment [5] the test system is mouse tracheal rings. Put plainly: β-agonist use-dependent desensitization of mouse tracheal rings. The conditions noted are these: round 2. From the text: Standard procedures were used to prepare and mount tissues.
A further experiment deals with human bronchial rings. In words: Wire myograph bronchodilation of histamine pre-contracted human bronchial rings (Biopta). From the text:
Details of bronchodilator studies shown in Figure 5H, 6 and Supplementary Figure 40 are provided below as part of the end assay report on Study CUR011 by Lee Christie (Biopta). Donors with any of the following conditions were excluded from the study: asthma, COPD, emphysema, lung cancer, cystic fibrosis, pulmonary fibrosis, pulmonary hypertension, pneumonia. Donors were also excluded if they had smoked in the past 12 months. Non-transplantable lung tissue was acquired from organ donors post mortem. Any macroscopically diseased/necrotic tissue was rejected. […] Human airway rings were set up under isometric conditions on a wire myograph in order to examine the influence of the test articles on bronchodilation. In order to assess tissue viability, the airways were challenged with carbachol (10 μM) and then isoprenaline (10 μM) to assess their constriction and relaxation responses, respectively. […] Viable airways were pre-constricted with histamine (10 μM), then exposed to one of the following cumulative concentration response curves (CCRCs): positive control, vehicle (water, volume matched to positive control), test article, vehicle (DMSO concentration matched to test articles). At the end of each CCRC, theophylline (2.2 mM) was added to induce maximal relaxation of the tissue. […] Airways were re-tensioned to 1.0 – 1.5 g if the tension had dropped below 1.0 g during the first 30 min of equilibration. (b) Airways were exposed to carbachol (bath concentration 10 μM) in order to measure their contractile responses and then isoprenaline (10 μM) in order to assess their relaxation. Airways were washed out and allowed to return to baseline. (c) Airways were pre-constricted with histamine (10 μM) before conducting a CCRC to the test article, the positive control (isoprenaline), test article vehicle or positive control vehicle.

Experiment [6] has as its system mouse tracheal rings. In words: Bronchodilation of mouse tracheal rings at differing levels of carbachol pre-contraction. The conditions noted are these: for relaxation of airway rings: normalized to theophylline. On the procedure: Standard procedures as listed above were used to prepare, mount and Wake-Up tracheal rings and the concentrations of carbachol providing EC25, EC50, EC75, or EC95 levels of contraction for each ring was determined as described above.

Setting [7] is: supplement, maximum concentration 55.6, read-out: TMEM16A eYFP Assay IC50.

“And” between values parts separate entries of the source, which are not always exact repeats. Equal values may be shown once. “Also recorded” adds a separate entry of the source. Read-outs that look alike come from different tables or passages of the source.

Consider `CC(=O)c1ccc(NC(=O)c2cc(Cl)ccc2O)cc1` [Cpd 7], for which the IC50 is 6.42 µM in [1] and 2.62 µM on hTMEM16A (abc) (setting [7]). In [2], the “IC50 Ratio, Wnt/TMEM16A” value was determined as 2.45.
`CS(=O)(=O)c1ccc(NC(=O)c2cc(Cl)ccc2O)c(Cl)c1` [Cpd 8]: the IC50 was 7.66 µM in experiment [1] and 4.72 µM on hTMEM16A (abc) (setting [7]). Besides, in [2], the “IC50 Ratio, Wnt/TMEM16A” value turned out to be 1.62.
For the compound `O=C(Nc1cccc(C(F)(F)F)c1)c1cc(Cl)ccc1O` [Cpd 9], the results for the IC50 (in experiment [1]; on hTMEM16A (abc) (setting [7])) were 0.89 µM and 0.13 µM, respectively. Further, the “IC50 Ratio, Wnt/TMEM16A” value in experiment [2] worked out at 6.85.
Consider `O=C(Nc1cccc(Cl)c1)c1cc(Cl)ccc1O` [Cpd 10], for which the IC50 in experiment [1] was 1.65 µM; on hTMEM16A (abc) (setting [7]) it was 0.09 µM. In addition, the “IC50 Ratio, Wnt/TMEM16A” value in [2] was found to be 18.33.
Take `O=C(Nc1ccccc1Cl)c1cc(Cl)ccc1O` [Cpd 11]: the IC50 in [1] is 3.05 µM; on hTMEM16A (abc) (setting [7]), 0.33 µM. Besides, in experiment [2], the “IC50 Ratio, Wnt/TMEM16A” value amounted to 9.24.
Regarding `O=C(Nc1ccc(Cl)cc1Cl)c1cc(Cl)ccc1O` [Cpd 12], the IC50 in [1] was 0.42 µM; at hTMEM16A (abc) (average, 22-point dose-response, read-out: TMEM16A eYFP Assay (IC50)), 0.088 µM; at hTMEM16A (abc) (setting [7]), 0.09 µM. Besides, in experiment [2], the “IC50 Ratio, Wnt/TMEM16A” value came out at 4.67.
Consider `O=C(Nc1cc(Cl)cc(Cl)c1)c1cc(Cl)ccc1O` [Cpd 13], for which the IC50 is 0.7 µM in experiment [1] and 0.2 µM at hTMEM16A (abc) (setting [7]). The “IC50 Ratio, Wnt/TMEM16A” value in [2] was 3.50.
In the case of `O=C(Nc1ccc(Cl)c(Cl)c1)c1cc(Cl)ccc1O` [Cpd 14], the IC50 was 0.73 µM in experiment [1] and 0.09 µM on hTMEM16A (abc) (TMEM16A eYFP Assay IC50, supplement, maximum concentration 55.6). In addition, in experiment [2], the “IC50 Ratio, Wnt/TMEM16A” value is 8.11.
Take `O=C(Nc1ccc(F)cc1)c1cc(Cl)ccc1O` [Cpd 16]: the IC50 in experiment [1] was 3.84 µM; at hTMEM16A (abc) (setting [7]), 0.25 µM. The “IC50 Ratio, Wnt/TMEM16A” value in experiment [2] was determined as 15.36.
For the compound `O=C(Nc1ccc(F)cc1F)c1cc(Cl)ccc1O` [Cpd 17], the IC50 is 4.02 µM in [1] and 0.31 µM at hTMEM16A (abc) (setting [7]). In [2], the “IC50 Ratio, Wnt/TMEM16A” value was 12.97.
Turning to `CC(C)NCC(O)c1ccc(O)c(O)c1` (stereo not drawn) [Isoproterenol, isoproterenol], the “bronchodilation of cytokine-treated airways” value in the experiment on mouse tracheal rings [3] is listed as “dramatically reduced”. Also, in the experiment on mouse tracheal rings [4] (EC75 carbachol, 10 nM dose (Supplementary Figure 39)), the “time to relax mouse tracheal rings” value was 2 – 4 min and 2 − 4 min. For the same compound, the EC50 (usually the concentration at which the effect is half-maximal) in the experiment on mouse tracheal rings [4] (EC75 carbachol, Exp 1-3, read-out: EC50 relaxation of mouse tracheal rings, individual experiments) was 0.0059 µM and 0.0077 µM; with mouse tracheal rings [4] (Mus musculus, EC75 carbachol, Exp 1-3, read-out: EC50 relaxation of mouse tracheal rings, individual experiments), 0.0081 µM; in the experiment with mouse tracheal rings [4] (Mus musculus, pre-contracted with EC75 carbachol, average, read-out: EC50 relaxation of mouse tracheal rings), 0.0071 µM; in the experiment on human bronchial rings (Homo sapiens, 10 μM histamine, read-out: EC50 bronchodilating histamine precontracted human airways) it was 0.03 µM. For the same compound, the “duration of bronchodilation after washout and re-challenge” value in the experiment on mouse airway rings was “short-acting; also recorded: quickly lost”. Besides, the “% relaxation after second treatment and highest dose” value with mouse tracheal rings [5] (EC50 carbachol) was found to be 78.6%; in the experiment with mouse tracheal rings [5] (EC75 carbachol), 42.7%. The “time to steady-state relaxation of human bronchial rings” value with human bronchial rings (histamine pre-contracted, 10 or 100 nM) is reported as “less than 7 min”. In addition, the “time to open airways” value in the experiment with human bronchial rings (summary) was under 7 min. Besides, the “relaxation of airway rings” value in the experiment with mouse tracheal rings [6] (EC25 level of carbachol) is listed as 100%; with mouse tracheal rings [6] (EC95 level of carbachol), 42%. For the same compound, the “bronchodilation of a single maximally contracted ring” value with mouse tracheal rings [6] (EC95 carbachol, highest dose (1 μM)) is 38% and 37.7%.
